# Data as given in patent publication US12281084B2, “Acetyl-CoA synthetase 2 (ACSS2) inhibitors and methods using same” (The Wistar Institute, priority 2019, dated 2025).
# Test system: BT474 tumors
# Test: Targeted metabolomic analysis of 99 metabolites in BT474 tumors
# Assay type: in vivo, mouse
# Conditions: VY-3-135 vs vehicle
# Description: All metabolomic experiments were performed in serum-like modified Eagle's medium (SMEM). SMEM contains 54 different nutrients that are found in the bloodstream at concentrations that are physiologically relevant to humans. SMEM was supplemented with 10% or 1% fetal bovine serum (FBS; Life Technologies). Cells were grown in normoxia (atmospheric oxygen) or hypoxia (1% oxygen) while being incubated in uniformly labeled ^13C2-acetate (0.100 mM; Cambridge Isotope Laboratories). Lengths of incubation are described in the figure legends. For extraction of metabolites from cultured cells, SMEM medium was aspirated and cells were washed once in ice-cold PBS. Metabolites were extracted by adding a solution of LC-MS grade methanol/acetonitrile/water (5:3:2) to the well. Plates were incubated at 4° C. for 5 minutes on a rocker and then the extraction solution was collected. The metabolite extract was cleared by centrifugation at 15,000×g for 10 minutes at 4° C. Supernatants were transferred to LC-MS silanized glass vials with PTFE caps and either run immediately on the LC-MS or stored at −80° C. For extraction of metabolites from tumors, tumor bearing mice were sacrificed by exsanguination under anesthesia and tumors were immediately excised and flash frozen in liquid nitrogen. Frozen tumors were weighed and then extracted at 40 mg/mL in extraction solution using a tissue homogenizer (Bullet Blender) and stainless steel beads. The metabolite extract was cleared twice by centrifugation at 15,000×g for 10 minutes at 4° C. Supernatants were transferred to LC-MS silanized glass vials with PTFE caps and either run immediately on the LC-MS or stored at −80° C.
# LC-MS analysis was performed on a Q Exactive Hybrid Quadrupole-Orbitrap HF-X MS (ThermoFisher Scientific) equipped with a HESI II probe and coupled to a Vanquish Horizon UHPLC system (ThermoFisher Scientific). 0.002 ml of sample is injected and separated by HILIC chromatography on a ZIC-pHILIC 2.1-mm. Samples are separated by ammonium carbonate, 0.1% ammonium hydroxide, pH 9.2, and mobile phase B is acetonitrile. […] The relevant MS parameters were as listed: sheath gas, 40; auxiliary gas, 10; sweep gas, 1; auxiliary gas heater temperature, 350° C.; spray voltage, 3.5 kV for the positive mode and 3.2 kV for the negative mode. Capillary temperature was set at 325° C., and funnel RF level at 40. Samples were analyzed in full MS scan with polarity switching at scan range 65 to 975 m/z; 120,000 resolution; automated gain control (AGC) target of 1E6; and maximum injection time (max IT) of 100 milliseconds. Identification and quantitation of metabolites was performed using an annotated compound library and TraceFinder 4.1 software. The “M+X” nomenclature refers to the isotopolog for that given metabolite. Isotopologs are chemically identical metabolites that differ only in their number of carbon-13 atoms. For instance, “M+2 citrate” means that two of the six carbons in citrate are carbon-13 while the other four are carbon-12. “M+4 citrate” means that four of the six carbons in citrate are carbon-13 while the other two are carbon-12.
# A targeted metabolomic analysis of 99 metabolites in vehicle versus VY-3-135 treated BT474 tumors was performed (FIG. 6E and Table 2).
structure (smiles),measurement,value
"CCn1c(C(O)(c2ccccc2)c2ccccc2)nc2ccc(C(=O)NC[C@@H](C)O)cc21 [VY-3-135, (R)-1-ethyl-2-(hydroxydiphenylmethyl)-N-(2-hydroxypropyl)-1H-benzo[d]imidazole-6-carboxamide]",Log2 FC (VY/Veh) 2-aminobutyrate,−0.5166
same,Log2 FC (VY/Veh) 3 -hydroxybutryate,−1.001
same,Log2 FC (VY/Veh) 3-phosphoglycerate,−0.5802
same,Log2 FC (VY/Veh) 4-hydroxyproline,−0.725
same,Log2 FC (VY/Veh) ADP,−1.452
same,Log2 FC (VY/Veh) AMP,−0.6555
same,Log2 FC (VY/Veh) ATP,−2.026
same,Log2 FC (VY/Veh) CDP,−1.642
same,Log2 FC (VY/Veh) CDP-choline,−2.603
same,Log2 FC (VY/Veh) CDP-ethanolamine,−1.552
same,Log2 FC (VY/Veh) CMP,−0.8199
same,Log2 FC (VY/Veh) DHAP/G3P,−2.029
same,Log2 FC (VY/Veh) FBP,−1.71
same,Log2 FC (VY/Veh) GDP,−2.599
same,Log2 FC (VY/Veh) GMP,−1.275
same,Log2 FC (VY/Veh) GSH,−0.6903
same,Log2 FC (VY/Veh) GSSG,0.2094
same,Log2 FC (VY/Veh) IMP,1.067
same,Log2 FC (VY/Veh) PEP,−1.207
same,Log2 FC (VY/Veh) SAH,−0.3532
same,Log2 FC (VY/Veh) SAM,−1.16
same,Log2 FC (VY/Veh) UDP,−1.495
same,Log2 FC (VY/Veh) UDP-GlcNAc,−0.8007
same,Log2 FC (VY/Veh) UMP,−0.4024
same,Log2 FC (VY/Veh) UTP,−2.182
same,Log2 FC (VY/Veh) acetyl-aspartate,−0.7575
same,Log2 FC (VY/Veh) acetyl-carnitine,−0.5449
same,Log2 FC (VY/Veh) acetyl-glycine,−1.037
same,Log2 FC (VY/Veh) acetyl-putrescine,−1.423
same,Log2 FC (VY/Veh) adenine,1.003
same,Log2 FC (VY/Veh) adenosine,1.879
same,Log2 FC (VY/Veh) aketoglutarate,0.9192
same,Log2 FC (VY/Veh) alanine,−0.6739
same,Log2 FC (VY/Veh) arginine,0.7229
same,Log2 FC (VY/Veh) arginosuccinate,−0.1741
same,Log2 FC (VY/Veh) asparagine,−1.225
same,Log2 FC (VY/Veh) aspartate,0.009996
same,Log2 FC (VY/Veh) betaine,−0.4739
same,Log2 FC (VY/Veh) carbamoyl-asp,−0.787
same,Log2 FC (VY/Veh) carnitine,−0.6768
same,Log2 FC (VY/Veh) choline,−0.5304
same,Log2 FC (VY/Veh) cis-aconitate,−0.2247
same,Log2 FC (VY/Veh) citrate,−0.1134
same,Log2 FC (VY/Veh) citrulline,−0.3937
same,Log2 FC (VY/Veh) creatine,−0.5321
same,Log2 FC (VY/Veh) creatinine,0.01869
same,Log2 FC (VY/Veh) cystathionine,−1.232
same,Log2 FC (VY/Veh) cystine,−0.4837
same,Log2 FC (VY/Veh) cytidine,1.244
same,Log2 FC (VY/Veh) cytosine,1.232
same,Log2 FC (VY/Veh) ethanolamine-P,−1.364
same,Log2 FC (VY/Veh) glucose-6-P,0.03691
same,Log2 FC (VY/Veh) glucose/hexose,0.9908
same,Log2 FC (VY/Veh) glutamate,−0.5429
same,Log2 FC (VY/Veh) glutamine,0.09203
same,Log2 FC (VY/Veh) glycerol,0.1079
same,Log2 FC (VY/Veh) glycerol-3-P,−0.8487
same,Log2 FC (VY/Veh) glycine,−0.4034
same,Log2 FC (VY/Veh) guanine,1.969
same,Log2 FC (VY/Veh) guanosine,3.356
same,Log2 FC (VY/Veh) histidine,−0.4238
same,Log2 FC (VY/Veh) hypoxanthine,0.3548
same,Log2 FC (VY/Veh) isoleucine,−1.483
same,Log2 FC (VY/Veh) lactate,−1.761
same,Log2 FC (VY/Veh) leucine,−0.6361
same,Log2 FC (VY/Veh) lysine,−1.026
same,Log2 FC (VY/Veh) malate,0.0239
same,Log2 FC (VY/Veh) malonate,0.1254
same,Log2 FC (VY/Veh) methionine,−1.631
same,Log2 FC (VY/Veh) methyl-lysine,−1.396
same,Log2 FC (VY/Veh) myo-inositol,−0.4307
same,Log2 FC (VY/Veh) niacin/nicotinate,1.977
same,Log2 FC (VY/Veh) nicotinamide,0.1254
same,Log2 FC (VY/Veh) nicotinamide N-oxide,4.808
same,Log2 FC (VY/Veh) ornithine,−0.7516
same,Log2 FC (VY/Veh) pantothenate,−0.6181
same,Log2 FC (VY/Veh) phenylalanine,−0.5091
same,Log2 FC (VY/Veh) phosphocholine,−0.7924
same,Log2 FC (VY/Veh) phosphocreatine,0.324
same,Log2 FC (VY/Veh) proline,−0.4024
same,Log2 FC (VY/Veh) pyridoxine,0.3808
same,Log2 FC (VY/Veh) pyruvate,−0.8037
same,Log2 FC (VY/Veh) riboflavin,−2.12
same,Log2 FC (VY/Veh) ribose,−0.5026
same,Log2 FC (VY/Veh) ribose-P,0.2634
same,Log2 FC (VY/Veh) sedoheptulose-P,−0.2584
same,Log2 FC (VY/Veh) serine,1.09
same,Log2 FC (VY/Veh) succinate,−1.793
same,Log2 FC (VY/Veh) succinyladenosine,−0.8738
same,Log2 FC (VY/Veh) succinylcysteine,−0.9561
same,Log2 FC (VY/Veh) succinylglutathione,−1.861
same,Log2 FC (VY/Veh) taurine,0.1159
same,Log2 FC (VY/Veh) threonine,−0.9186
same,Log2 FC (VY/Veh) thymidine,2.328
same,Log2 FC (VY/Veh) tryptophan,−0.2045
same,Log2 FC (VY/Veh) tyrosine,−0.8432
same,Log2 FC (VY/Veh) urate,−0.6288
same,Log2 FC (VY/Veh) valine,−0.5942
same,Log2 FC (VY/Veh) xanthine,−0.8286
